Reference: patent US20120329761A1, “USE OF TIGECYCLINE FOR TREATMENT OF CANCER” (UNIVERSITY HEALTH NETWORK, priority 2010, published 2012)

Tests used:
[1] = tested on: solid tumour cell lines; assay: Cell growth and viability, MTS assay, 72 hours; assay type: cell-based
Procedure: (§1) FIG. 1. […] (A) TEX and (B) M9-ENL1 cells were plated in 96-well plates and drugs were added to the wells (5 μL per well) for final concentrations of 10 μM (shown) and 1 μM. Cell growth and viability was measured at 48 hours (M9-ENL-1) and 72 hours (TEX) by MTS assay. Cell viability is shown for each compound as a percent of cells treated with DMSO alone. (C) Leukemia, (D) myeloma, and (E) solid tumor cell lines were seeded in 96-well plates and then treated with increasing concentrations of tigecycline. Cell growth and viability was measured at 72 hours by MTS assay. Cell viability is expressed as mean percentage plus or minus SD (n=3) relative to vehicle-treated cells. […] Cell viability was measured at 72 hours by MTS assay. Cell viability is expressed as mean percentage plus or minus SD (n=3) relative to vehicle-treated cells.
(§2) Human leukemia (OCI-AML2, HL60, U937) cell lines were maintained in RPMI 1640 medium. Myeloma (LP-1, KMS11, 8226, JJN3, OP-M2) cell lines were maintained in Iscove's media. Ovarian (OVCAR), prostate (PC3), and lung alveolar (A549) cell lines were maintained in RPMI 1640 medium. Media was supplemented with 10% fetal calf serum (FCS), […] (all from Hyclone, Logan, Utah). TEX cells were maintained in IMDM, 15% FBS, 2 mM L-glutamine, 1%, penicillin-streptomycin, 20 ng/mL SCF, 2 ng/mL IL-3. M9-ENL1 cells were maintained in alpha-MEM, 20% FBS, 5% human plasma, 2 mM L-glutamine, 1%, penicillin-streptomycin, 100 ng/mL SCF, 10 ng/mL IL-3, 5 ng/mL IL-7, and 5 ng/mL FLT3L. All cells were incubated at 37° C. in a humidified air atmosphere supplemented with 5% CO2.
(§3) Cell growth and viability was assessed by the MTS assay (Promega, Madison, Wis.) according to the manufacturer's instructions. Apoptosis and cell death was measured by Annexin V-fluoroscein isothiocyanate (FITC; Biovision Research Products, Mountain View, Calif.), propidium iodide staining and flow cytometry according to the manufacturer's instructions and as previously described^30.

[2] = tested on: myeloma cell lines; assay: Cell growth and viability, MTS assay, 72 hours; assay type: cell-based
Procedure: as §1, §2, §3

[3] = tested on: leukemia cell lines; assay: Cell growth and viability, MTS assay, 72 hours; assay type: cell-based; settings: tested leukemia cell lines
Procedure: as §1, §2, §3

[4] = tested on: TEX cells; assay: Apoptosis by Annexin V flow cytometry; assay type: cell-based, human; settings: over time
Procedure: as §1, §3

[5] = cited from earlier work
[6] = tested on: primary AML samples; assay: Mitochondrial membrane potential, JC-1 dye; assay type: cell-based, human; settings: three primary AML samples, 5 μM, times preceding onset of cell death
Procedure: (§4) FIG. 4. Tigecycline decreases mitochondrial Cox-1 protein levels in TEX cells. (A) Cells from TEX, OCI-AML2 and two primary AML patients were treated with increasing concentrations (2.5 μM and 5 μM) of tigecycline for 36 and 48 hours of tigecycline. Total proteins were extracted and analyzed by western blotting for Cox-1, Cox-2, Cox-4, grp78, XIAP, actin and tubulin. (B) TEX and AML patient cells were treated with increasing concentrations (2.5 μM and 5 μM) of tigecycline. Cox-1, Cox-2, and Cox-4 mRNA expression relative 18S was determined by quantitative RT-PCR. Data is shown as mean±SD. (C) TEX cells were treated with increasing concentrations of tigecycline and chloramphenicol (CAP) for 72 hours. Complex I, II and IV enzyme activity relative to citrate synthase activity was determined as described in materials and methods. (D) Cells from TEX, primary AML patients, and normal donors were treated with increasing concentrations of tigecycline. Mitochondrial membrane potential (Δψ) was determined by staining cells with JC-1 dye, and flow cytometry analysis (Red/Green ratio). Reactive oxygen species generation (ROS) was determined by staining with h2-DCFDA and Dihydroethidium (DHE).
(§5) To measure mitochondrial membrane potential, cells were treated with tigecycline similarly as described above and then washed twice with PBS and incubated with 5 μM of 5,5′,6,6′-tetrachloro-1,1′,3,3′-tetraethyl benzimidazolylcarbocyanine iodide (JC-1, Sigma-Aldrich) for 20 minutes at 37° C. Each sample was then washed twice with 1 mL PBS and resuspended in 500 μL PBS prior to being read on a BD FACSCalibur. Samples were excited at 488 nm and emission was collected at 526 nm (green) and 595 nm (red). Analysis was conducted using FlowJo software (TreeStar Inc). […]
(§6) During oxidative phosphorylation, the intermediate between oxygen reduction and ATP synthesis is the electrochemical proton gradient, comprised mostly of the mitochondrial membrane potential. […] The effect of tigecycline treatment on the mitochondrial membrane potential as determined by the carbocyanine dye JC-1 was examined. […]

[7] = tested on: normal hematopoietic cells; assay: Mitochondrial membrane potential, JC-1 dye; assay type: cell-based, human; settings: normal hematopoietic cells from two G-CSF mobilized normal donors
Procedure: as §4, §5, §6

[8] = tested on: TEX cells; assay: Mitochondrial membrane potential, JC-1 dye; assay type: cell-based, human; settings: 5 μM, times preceding onset of cell death
Procedure: as §4, §5, §6

Q: Which IC50 [1] does the source give for `CN(C)c1cc(NC(=O)CNC(C)(C)C)c(O)c2c1C[C@H]1C[C@H]3[C@H](N(C)C)C(O)=C(C(N)=O)C(=O)[C@@]3(O)C(O)=C1C2=O` [tigecycline] here?
A: > 10 µM

Q: And the IC50 [2]?
A: > 10 µM

Q: What about the IC50 [3] of the same compound?
A: 5 to 8 µM

Q: What about the “apoptosis, percentage of cells labeled by Annexin V” value [4] of the same compound?
A: time-dependent increases in apoptosis

Q: What about the toxicity ([5]; 50 mg intravenously every 12 hours) of the same compound?
A: without significant toxicity

Q: And the “half life in humans” value ([5]; humans)?
A: 27 h

Q: And the tolerability ([5]; intravenous doses of 300 mg)?
A: well tolerated save for mild nausea

Q: What about the “mitochondrial membrane potential (JC-1 Red/Green ratio)” value [6] of the same compound?
A: decreased mitochondrial membrane potential

Q: What about the “loss of mitochondrial membrane potential” value [7] of the same compound?
A: not seen

Q: What about the “mitochondrial membrane potential (JC-1 Red/Green ratio)” value [8] of the same compound?
A: decreased mitochondrial membrane potential
